From PubChem BioAssay AID1963854 (Molecular Pharmacology Branch, DTP, NCI, 2024)

System: 186277-243-T-J2-PDC complex spheroid viability
Experiment: Anticancer human tumor 186277-243-T-J2-PDC patient-derived colon adenocarcinoma cell line growth inhibition [POLQ]
Settings: for IC50: curve of first compound; for viability, T/C: stronger effect = lower value
How it was run: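 Three-cell-type spheroids modelling solid tumor plus stroma served as the readout system; POL inhibitors were tested individually and in combination, concentration ranges set by clinical Cmax where known.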

[1] = second compound 0.0316 µM, first compound 0.0316 µM
[2] = second compound 0.0316 µM, first compound 0.1 µM
[3] = second compound 0.0316 µM, first compound 0.316 µM
[4] = second compound 0.0316 µM, first compound 1 µM
[5] = second compound 0.0316 µM, first compound 3.16 µM
[6] = second compound 0.0316 µM, first compound 10 µM
[7] = second compound 0.1 µM, first compound 0.0316 µM
[8] = second compound 0.1 µM, first compound 0.1 µM
[9] = second compound 0.1 µM, first compound 0.316 µM
[10] = second compound 0.1 µM, first compound 1 µM
[11] = second compound 0.1 µM, first compound 3.16 µM
[12] = second compound 0.1 µM, first compound 10 µM
[13] = second compound 0.316 µM, first compound 0.0316 µM
[14] = second compound 0.316 µM, first compound 0.1 µM
[15] = second compound 0.316 µM, first compound 0.316 µM
[16] = second compound 0.316 µM, first compound 1 µM
[17] = second compound 0.316 µM, first compound 3.16 µM
[18] = second compound 0.316 µM, first compound 10 µM
[19] = second compound 1 µM, first compound 0.0316 µM
[20] = second compound 1 µM, first compound 0.1 µM
[21] = second compound 1 µM, first compound 0.316 µM
[22] = second compound 1 µM, first compound 1 µM
[23] = second compound 1 µM, first compound 3.16 µM
[24] = second compound 1 µM, first compound 10 µM
[25] = second compound 3.16 µM, first compound 0.0316 µM
[26] = second compound 3.16 µM, first compound 0.1 µM
[27] = second compound 3.16 µM, first compound 0.316 µM
[28] = second compound 3.16 µM, first compound 1 µM
[29] = second compound 3.16 µM, first compound 3.16 µM
[30] = second compound 3.16 µM, first compound 10 µM
[31] = second compound 10 µM, first compound 0.0316 µM
[32] = second compound 10 µM, first compound 0.1 µM
[33] = second compound 10 µM, first compound 0.316 µM
[34] = second compound 10 µM, first compound 1 µM
[35] = second compound 10 µM, first compound 3.16 µM
[36] = second compound 10 µM, first compound 10 µM
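Further: spheroids exposed to compounds for seven days.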
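Wherever viability, T/C is given: 100% = DMSO vehicle control viability.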

CCCS(=O)(=O)Nc1ccc(F)c(C(=O)c2c[nH]c3ncc(-c4ccc(Cl)cc4)cc23)c1F + COC1C(OC(N)=O)C(O)C(Oc2ccc3c(O)c(NC(=O)c4ccc(O)c(CC=C(C)C)c4)c(=O)oc3c2C)OC1(C)C
IC50 (second compound 0.0316 µM): 8120 nM
IC50 (second compound 0.1 µM): 7840 nM
IC50 (second compound 0.316 µM): > 10000 nM
IC50 (second compound 1 µM): 7810 nM
IC50 (second compound 3.16 µM): 9150 nM
IC50 (second compound 10 µM): > 10000 nM
viability, T/C [1]: 95%
viability, T/C [2]: 90%
viability, T/C [3]: 86.5%
viability, T/C [4]: 93.4%
viability, T/C [5]: 88.5%
viability, T/C [6]: 41.5%
viability, T/C [7]: 98.4%
viability, T/C [8]: 76.9%
viability, T/C [9]: 96.2%
viability, T/C [10]: 79.7%
viability, T/C [11]: 87.7%
viability, T/C [12]: 39.9%
viability, T/C [13]: 91.4%
viability, T/C [14]: 90.4%
viability, T/C [15]: 89.7%
viability, T/C [16]: 92.8%
viability, T/C [17]: 101%
viability, T/C [18]: 52%
viability, T/C [19]: 91.2%
viability, T/C [20]: 97.2%
viability, T/C [21]: 86.6%
viability, T/C [22]: 86.8%
viability, T/C [23]: 97.6%
viability, T/C [24]: 38.5%
viability, T/C [25]: 92.2%
viability, T/C [26]: 96.6%
viability, T/C [27]: 93.5%
viability, T/C [28]: 90.6%
viability, T/C [29]: 88%
viability, T/C [30]: 46.7%
viability, T/C [31]: 118%
viability, T/C [32]: 89.7%
viability, T/C [33]: 93.6%
viability, T/C [34]: 94%
viability, T/C [35]: 92%
viability, T/C [36]: 50.3%

C#Cc1c(F)ccc2cc(O)cc(-c3ncc4c(N5CC6CCC(C5)N6)nc(OCC56CCCN5CC(F)C6)nc4c3F)c12 (stereo not drawn) + COC1C(OC(N)=O)C(O)C(Oc2ccc3c(O)c(NC(=O)c4ccc(O)c(CC=C(C)C)c4)c(=O)oc3c2C)OC1(C)C
IC50 (second compound 0.0316 µM): 88.1 nM
IC50 (second compound 0.1 µM): 91.9 nM
IC50 (second compound 0.316 µM): 98 nM
IC50 (second compound 1 µM): 95.5 nM
IC50 (second compound 3.16 µM): 88.2 nM
IC50 (second compound 10 µM): 74.6 nM
viability, T/C [1]: 78.8%
viability, T/C [2]: 47.2%
viability, T/C [3]: 17.3%
viability, T/C [4]: 13.3%
viability, T/C [5]: 5.89%
viability, T/C [6]: 3.8%
viability, T/C [7]: 73.6%
viability, T/C [8]: 48.1%
viability, T/C [9]: 24.4%
viability, T/C [10]: 10.3%
viability, T/C [11]: 8.42%
viability, T/C [12]: 3.79%
viability, T/C [13]: 87.3%
viability, T/C [14]: 49.5%
viability, T/C [15]: 21.1%
viability, T/C [16]: 9.93%
viability, T/C [17]: 5.5%
viability, T/C [18]: 3.94%
viability, T/C [19]: 92.4%
viability, T/C [20]: 48.4%
viability, T/C [21]: 15.6%
viability, T/C [22]: 8.5%
viability, T/C [23]: 5.97%
viability, T/C [24]: 3.63%
viability, T/C [25]: 73.6%
viability, T/C [26]: 47.1%
viability, T/C [27]: 19.5%
viability, T/C [28]: 7.53%
viability, T/C [29]: 5.69%
viability, T/C [30]: 3.42%
viability, T/C [31]: 74.3%
viability, T/C [32]: 42%
viability, T/C [33]: 18%
viability, T/C [34]: 9.65%
viability, T/C [35]: 8.31%
viability, T/C [36]: 3.67%

CNCc1ccc(-c2[nH]c3cc(F)cc4c3c2CCNC4=O)cc1 + COC1C(OC(N)=O)C(O)C(Oc2ccc3c(O)c(NC(=O)c4ccc(O)c(CC=C(C)C)c4)c(=O)oc3c2C)OC1(C)C
IC50 (second compound 0.0316 µM): > 10000 nM
IC50 (second compound 0.1 µM): > 10000 nM
IC50 (second compound 0.316 µM): > 10000 nM
IC50 (second compound 1 µM): > 10000 nM
IC50 (second compound 3.16 µM): > 10000 nM
IC50 (second compound 10 µM): > 10000 nM
viability, T/C [1]: 99%
viability, T/C [2]: 96.1%
viability, T/C [3]: 91%
viability, T/C [4]: 85.8%
viability, T/C [5]: 99.3%
viability, T/C [6]: 116%
viability, T/C [7]: 102%
viability, T/C [8]: 96.3%
viability, T/C [9]: 106%
viability, T/C [10]: 105%
viability, T/C [11]: 106%
viability, T/C [12]: 99%
viability, T/C [13]: 110%
viability, T/C [14]: 99.8%
viability, T/C [15]: 102%
viability, T/C [16]: 93.1%
viability, T/C [17]: 115%
viability, T/C [18]: 115%
viability, T/C [19]: 87.1%
viability, T/C [20]: 107%
viability, T/C [21]: 101%
viability, T/C [22]: 104%
viability, T/C [23]: 102%
viability, T/C [24]: 101%
viability, T/C [25]: 87%
viability, T/C [26]: 104%
viability, T/C [27]: 108%
viability, T/C [28]: 99.6%
viability, T/C [29]: 109%
viability, T/C [30]: 112%
viability, T/C [31]: 103%
viability, T/C [32]: 105%
viability, T/C [33]: 104%
viability, T/C [34]: 93.1%
viability, T/C [35]: 104%
viability, T/C [36]: 112%

CCc1c2c(nc3ccc(O)cc13)-c1cc3c(c(=O)n1C2)COC(=O)[C@]3(O)CC + Nc1ccc(C#CCN(C(=O)Cc2ncc(C(F)(F)F)cc2C(F)(F)F)c2ccc(F)cc2)nn1
IC50 (second compound 0.0316 µM): 30.9 nM
IC50 (second compound 0.1 µM): 30 nM
IC50 (second compound 0.316 µM): 26.1 nM
IC50 (second compound 1 µM): 27.4 nM
IC50 (second compound 3.16 µM): 25.5 nM
IC50 (second compound 10 µM): 21.4 nM
viability, T/C (second compound 0.0316 µM, first compound 0.00316 µM): 114%
viability, T/C (second compound 0.0316 µM, first compound 0.01 µM): 87.4%
viability, T/C [1]: 49.6%
viability, T/C [2]: 26.4%
viability, T/C [3]: 20.3%
viability, T/C [4]: 18.1%
viability, T/C (second compound 0.1 µM, first compound 0.00316 µM): 122%
viability, T/C (second compound 0.1 µM, first compound 0.01 µM): 87.1%
viability, T/C [7]: 49.9%
viability, T/C [8]: 24.7%
viability, T/C [9]: 20.8%
viability, T/C [10]: 19.1%
viability, T/C (second compound 0.316 µM, first compound 0.00316 µM): 128%
viability, T/C (second compound 0.316 µM, first compound 0.01 µM): 86.9%
viability, T/C [13]: 43.2%
viability, T/C [14]: 23.1%
viability, T/C [15]: 22.4%
viability, T/C [16]: 19.4%
viability, T/C (second compound 1 µM, first compound 0.00316 µM): 125%
viability, T/C (second compound 1 µM, first compound 0.01 µM): 82.5%
viability, T/C [19]: 46.8%
viability, T/C [20]: 24.2%
viability, T/C [21]: 20.6%
viability, T/C [22]: 18.3%
viability, T/C (second compound 3.16 µM, first compound 0.00316 µM): 114%
viability, T/C (second compound 3.16 µM, first compound 0.01 µM): 82.9%
viability, T/C [25]: 43.5%
viability, T/C [26]: 20.9%
viability, T/C [27]: 18.5%
viability, T/C [28]: 18.1%
viability, T/C (second compound 10 µM, first compound 0.00316 µM): 100%
viability, T/C (second compound 10 µM, first compound 0.01 µM): 71.8%
viability, T/C [31]: 40.2%
viability, T/C [32]: 18.5%
viability, T/C [33]: 17%
viability, T/C [34]: 15.9%
